pIC50: −log10 of the molar value.
Tests used:
[1] = target: IDH1 wt/IDH1 R132H heterodimer (Homo sapiens (Human), UniProt O75874, R132H); assay: In vitro assay for IDH1m R132H inhibitors, IDH1 wt/IDH1 R132H heterodimer, NADPH depletion (diaphorase/resazurin); assay type: biochemical; conditions: IDH1 wt/R132H heterodimer, NADPH/NADP, not saturated; read-out: IDH1 wt/R132H NADPH/NADP IC50 not saturated
Method in brief: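 Read-out is NADPH left after α-KG reduction to 2-HG, measured via resorufin fluorescence after 5 min diaphorase/resazurin step at 25° C. Enzyme is sf9-expressed IDH1wt-his/IDH1R132H-flag heterodimer, pre-incubated 1 hr at room temperature with compound and cofactor. IC50s from DMSO stocks diluted 1:50.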

[2] = target: IDH1-R132 homodimer enzyme (R132H) (Homo sapiens (Human), UniProt O75874, R132H); assay: In vitro assay IDH1-R132H homodimer, NADPH depletion assay; assay type: biochemical
Procedure: (§1) The following describes the experimental procedures that can be used to obtain data on columns 3 and 6 of Table 4.
(§2) A test compound is prepared as 10 mM stock in DMSO and diluted to 50× final concentration in DMSO, for a 50 μl reaction mixture. IDH enzyme activity converting alpha-ketoglutarate to 2-hydroxyglutaric acid is measured using a NADPH depletion assay. In the assay the remaining cofactor is measured at the end of the reaction with the addition of a catalytic excess of diaphorase and resazurin, to generate a fluorescent signal in proportion to the amount of NADPH remaining. […] The reaction is started with the addition of 10 μl of Substrate Mix ([…], 5 mM alpha-ketoglutarate, in Assay Buffer) and the mixture is incubated for 90 minutes at room temperature.

[3] = target: IDH1 R132C (Homo sapiens (Human), UniProt O75874, R132C); assay: In vitro assay IDH1 R132C homodimer, NADPH depletion assay; assay type: biochemical
Procedure: as §1, §2
The concentration of NADPH and alpha-ketoglutarate in the Substrate Buffer is 20 μM and 1 mM, respectively.

[4] = target: IDH2 R140Q (Homo sapiens (Human), UniProt P48735, R140Q); assay: In vitro assay for IDH2m R140Q inhibitors, cofactor depletion assay; assay type: biochemical; conditions: IDH2 R140Q enzyme
Method in brief: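 Remaining cofactor measured fluorimetrically: diaphorase/resazurin Stop Mix […], halting the reaction. Before that, mutant enzyme and compound sat 1 h at RT, then substrate mix (4 μM NADPH, 1.6 mM α-KG) was added for 16 h at RT.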

[5] = system: U87MG pLVX-IDH2 R140Q-neo cells; assay: U87MG pLVX-IDH2 R140Q-neo cell based assay, 2-HG by LC-MS; conditions: Homo sapiens, U-87 MG
[6] = system: HT1080 cells; assay: Cellular assay for IDH1m R132C inhibitors, 2-HG by LC-MS in HT1080 cells; assay type: cell-based; conditions: Homo sapiens, HT-1080
Method in brief: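 2-HG levels were measured by LC-MS in culture medium sampled 48 h after compound addition (0.2% DMSO) to HT1080 cells seeded overnight at 5000 cells/well. A CellTiter-Glo luminescence read at 72 h gave cell viability.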

[7] = target: IDH1-R132H homodimer enzyme (Homo sapiens (Human), UniProt O75874, R132H); assay: In vitro assay IDH1-R132H homodimer, NADPH depletion assay with NADPH/NADP preincubation; assay type: biochemical; conditions: 5 μM NADPH and 37.5 μM NADP
Method in brief: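 Compounds were added from DMSO at 50× final concentration, and the mutant enzyme was incubated 60 min at room temperature after starting with a substrate mix holding NADPH and 5 mM alpha-ketoglutarate. Residual cofactor, read by fluorescence after excess diaphorase and resazurin, reflects enzyme turnover.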

Sequence of IDH1 R132C (O75874 whole entry R132C): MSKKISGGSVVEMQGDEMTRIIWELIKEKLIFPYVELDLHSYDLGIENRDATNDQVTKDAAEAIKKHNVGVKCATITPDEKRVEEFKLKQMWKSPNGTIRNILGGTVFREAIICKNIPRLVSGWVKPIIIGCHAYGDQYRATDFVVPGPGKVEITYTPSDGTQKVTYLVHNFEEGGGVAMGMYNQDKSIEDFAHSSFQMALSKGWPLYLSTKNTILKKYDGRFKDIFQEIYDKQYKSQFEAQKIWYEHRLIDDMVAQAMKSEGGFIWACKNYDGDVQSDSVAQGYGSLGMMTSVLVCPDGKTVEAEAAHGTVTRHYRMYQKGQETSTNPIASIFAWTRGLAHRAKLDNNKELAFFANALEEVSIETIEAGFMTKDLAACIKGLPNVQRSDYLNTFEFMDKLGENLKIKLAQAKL
Sequence of IDH1-R132 homodimer enzyme (R132H) (O75874 whole entry R132H): as the sequence (O75874 whole entry R132C) above, with C132H counted along it
Sequence of IDH1 wt/IDH1 R132H heterodimer (O75874 whole entry R132H): as the sequence (O75874 whole entry R132C) above, with C132H counted along it
Sequence of IDH1 wt/IDH1 R132H heterodimer (O75874 whole entry, stated change not applied): as the sequence (O75874 whole entry R132C) above, with C132R counted along it
Sequence of IDH2 R140Q (P48735 40-452 R140Q): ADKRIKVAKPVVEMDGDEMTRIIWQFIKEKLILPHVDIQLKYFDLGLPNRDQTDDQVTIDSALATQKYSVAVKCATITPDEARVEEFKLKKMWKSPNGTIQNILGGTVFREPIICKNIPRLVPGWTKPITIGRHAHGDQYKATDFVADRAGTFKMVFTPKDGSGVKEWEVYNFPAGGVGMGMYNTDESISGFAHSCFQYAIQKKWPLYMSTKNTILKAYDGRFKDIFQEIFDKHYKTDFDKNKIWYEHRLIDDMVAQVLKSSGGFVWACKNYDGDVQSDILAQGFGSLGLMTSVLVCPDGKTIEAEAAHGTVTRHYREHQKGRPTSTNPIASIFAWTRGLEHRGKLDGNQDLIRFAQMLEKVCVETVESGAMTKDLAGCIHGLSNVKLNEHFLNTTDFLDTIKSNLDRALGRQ
Sequence of IDH1-R132H homodimer enzyme (O75874 whole entry R132H): as the sequence (O75874 whole entry R132C) above, with C132H counted along it

Structure (SMILES) | pIC50 [2] | pIC50 [3] | pIC50 [4] | also measured
CC(Nc1nc(N[C@H](C)C2CC2)nc(-c2cccc(C(F)(F)F)n2)n1)c1ccccc1 (single isomer, unassigned) [Compound 20] | 7.00 to 7.30 | 7.00 to 7.30 | > 7.30 | pIC50 [1]: > 7.30
C[C@@H](Nc1nc(NCC(C)(C)O)nc(-c2cccc(C(F)(F)F)n2)n1)C1CC1 (stereo in doubt) [Compound 10, 1-(4-(1-cyclopropylethylamino)-6-(6-(trifluoromethyl)pyridin-2-yl)-1,3,5-triazin-2-ylamino)-2-methylpropan-2-ol] | < 6.00 | < 6.00 | 7.00 to 7.30 | 
FC(F)(F)c1cccc(-c2nc(NCC3CC3)nc(NCC3CC3)n2)n1 [Compound 1] | < 6.00 | < 6.00 | > 7.30 | pIC50 [5]: > 7.30
C[C@@H](Nc1nc(N[C@H](C)C2CC2)nc(-c2cccc(C(F)(F)F)n2)n1)C1CC1 [Compound 2] | > 7.30 | > 7.30 | > 7.30 | pIC50 [6]: > 7.30; pIC50 [5]: > 7.30
CC(C)(C)Nc1nc(NC(C)(C)C)nc(-c2cccc(C(F)(F)F)n2)n1 [Compound 4] | 7.00 to 7.30 | 7.00 to 7.30 | > 7.30 | pIC50 [6]: 7.00 to 7.30
FC(F)(F)c1cccc(-c2nc(NCC3CCC3)nc(NCC3CCC3)n2)n1 [Compound 7] | 6.00 to 7.00 | < 6.00 | > 7.30 | 
COc1ccc(F)c(-c2nc(N[C@H](C)C3CC3)nc(N[C@H](C)C3CC3)n2)c1 [Compound 8] |  | < 6.00 | 7.00 to 7.30 | IDH1 R132H IC50 [2]: No Fit
FC(F)(F)c1cccc(-c2nc(NC3CCC3)nc(NC3CCC3)n2)n1 [Compound 9] | 7.00 to 7.30 | 6.00 to 7.00 | > 7.30 | 
C[C@@H](Nc1nc(N[C@H](C)C2CC2)nc(-c2cccc(O)c2)n1)C1CC1 [Compound 11] | 6.00 to 7.00 | 7.00 to 7.30 | > 7.30 | pIC50 [6]: 7.00 to 7.30
CC(O)CNc1nc(N[C@H](C)C2CC2)nc(-c2cccc(C(F)(F)F)n2)n1 (stereo partly drawn) [Compound 12, 1-(4-((R)-1-cyclopropylethylamino)-6-(6-(trifluoromethyl)pyridin-2-yl)-1,3,5-triazin-2-ylamino)propan-2-ol] | < 6.00 | < 6.00 | 7.00 to 7.30 | 
CC(C)C(C)Nc1nc(NC(C)C(C)C)nc(-c2cccc(C(F)(F)F)n2)n1 (stereo not drawn) [Compound 13] | > 7.30 | 7.00 to 7.30 |  | pIC50 [6]: > 7.30
CC(O)CNc1nc(NCC(C)O)nc(-c2cccc(C(F)(F)F)n2)n1 (stereo not drawn) [Compound 14] | < 6.00 | < 6.00 | < 6.00 | 
C[C@@H](Nc1nc(N[C@H](C)C2CC2)nc(-c2cccc(CO)c2)n1)C1CC1 [Compound 16] | < 6.00 | < 6.00 | > 7.30 | 
CC(C)[C@H](C)Nc1nc(N[C@@H](C)C(C)C)nc(-c2cccc(C(F)(F)F)n2)n1 [Compound 17] | 7.00 to 7.30 | 7.00 to 7.30 |  | pIC50 [6]: > 7.30
CC(C)[C@@H](C)Nc1nc(N[C@H](C)C(C)C)nc(-c2cccc(C(F)(F)F)n2)n1 [Compound 18] | > 7.30 | 7.00 to 7.30 |  | pIC50 [6]: 7.00 to 7.30
C[C@@H](Nc1nc(N[C@H](C)C2CCC2)nc(-c2cccc(C(F)(F)F)n2)n1)C1CCC1 [Compound 19] | 7.00 to 7.30 | 7.00 to 7.30 |  | pIC50 [6]: 7.00 to 7.30
C[C@@H](Nc1nc(NCc2ccccc2)nc(-c2cccc(C(F)(F)F)n2)n1)C1CC1 [Compound 21] | < 6.00 | < 6.00 | > 7.30 | 
C[C@@H](Nc1nc(N[C@H](C)C2CC2)nc(-c2cccc(C(F)(F)F)n2)n1)c1ccccc1 [Compound 22] | 7.00 to 7.30 | 6.00 to 7.00 | > 7.30 | 
C[C@H](Nc1nc(N[C@H](C)c2ccccc2)nc(-c2cccc(C(F)(F)F)n2)n1)c1ccccc1 [Compound 26] | 6.00 to 7.00 | < 6.00 | > 7.30 | 
CC(Nc1nc(N[C@H](C)C2CC2)nc(-c2cccc(C(F)(F)F)n2)n1)c1cccc(F)c1 (stereo partly drawn) [Compound 28] | 7.00 to 7.30 | 7.00 to 7.30 |  | pIC50 [1]: > 7.30; pIC50 [6]: 7.00 to 7.30
C[C@@H](Nc1nc(NC2(c3ccccc3)CC2)nc(-c2cccc(C(F)(F)F)n2)n1)C1CC1 [Compound 30] | 7.00 to 7.30 | 6.00 to 7.00 | 7.00 to 7.30 | 
FC1(F)CCC(Nc2nc(NC3CCC(F)(F)C3)nc(-c3cccc(C(F)(F)F)n3)n2)C1 (stereo not drawn) [Compound 31] | > 7.30 | > 7.30 | > 7.30 | pIC50 [6]: > 7.30

Structure (SMILES) | pIC50 [2] | pIC50 [3] | pIC50 [4] | also measured
C[C@H](Nc1nc(N[C@@H](C)C2CC2)nc(-c2cccc(C(F)(F)F)n2)n1)C1CC1 [Compound 33] | > 7.30 | 7.00 to 7.30 |  | pIC50 [6]: > 7.30
C[C@H](Nc1nc(N[C@H](C)C2CC2)nc(-c2cccc(C(F)(F)F)n2)n1)C1CC1 [Compound 34] | > 7.30 | 7.00 to 7.30 |  | pIC50 [6]: > 7.30
CC(C)Nc1nc(NC(C)(C)C#N)nc(-c2cc(O)ccc2F)n1 [Compound 35] | < 6.00 | < 6.00 |  | 
FC(F)(F)c1cccc(-c2nc(NC3CC4CC4C3)nc(NC3CC4CC4C3)n2)n1 (stereo not drawn) [Compound 36] | > 7.30 | 7.00 to 7.30 |  | pIC50 [1]: > 7.30
C[C@@H](Nc1nc(NC(C)(C)C#N)nc(-c2cccc(C(F)(F)F)n2)n1)C1CC1 [Compound 37] | 7.00 to 7.30 | < 6.00 |  | 
C[C@@H](Nc1nc(NC2CCOC2)nc(-c2cccc(C(F)(F)F)n2)n1)C1CC1 (stereo partly drawn) [Compound 38] | 7.00 to 7.30 | 6.00 to 7.00 |  | 
CCCC(C)Nc1nc(N[C@H](C)C2CC2)nc(-c2cccc(C(F)(F)F)n2)n1 (stereo partly drawn) [Compound 39] | > 7.30 | 7.00 to 7.30 |  | pIC50 [6]: 7.00 to 7.30
CC(C#N)Nc1nc(N[C@H](C)C2CC2)nc(-c2cccc(C(F)(F)F)n2)n1 (stereo partly drawn) [Compound 40] | 7.00 to 7.30 | 7.00 to 7.30 |  | 
FC1(F)CCC(Nc2nc(NC3CCC(F)(F)CC3)nc(-c3cccc(C(F)(F)F)n3)n2)CC1 [Compound 41] | 7.00 to 7.30 | < 6.00 |  | 
C[C@@H](Nc1nc(N[C@H]2CCCC[C@@H]2O)nc(-c2cccc(C(F)(F)F)n2)n1)C1CC1 [Compound 42] | 7.00 to 7.30 | 6.00 to 7.00 |  | 
C[C@@H](Nc1nc(N[C@H]2CCC[C@H]2O)nc(-c2cccc(C(F)(F)F)n2)n1)C1CC1 [Compound 43] | 6.00 to 7.00 | < 6.00 |  | 
COCC(C)Nc1nc(N[C@H](C)C2CC2)nc(-c2cccc(C(F)(F)F)n2)n1 (stereo partly drawn) [Compound 44] | 6.00 to 7.00 | < 6.00 |  | 
C[C@@H](Nc1nc(N[C@H](C)C2CC2)nc(-c2cccc(Cl)n2)n1)C1CC1 [Compound 45] | > 7.30 | 7.00 to 7.30 |  | 
CCN(CC)c1nc(N[C@H](C)C2CC2)nc(-c2cccc(Cl)n2)n1 [Compound 46] | < 6.00 | < 6.00 |  | 
C[C@@H](Nc1nc(N[C@H](C)C2CC2)nc(-c2cccc(C(F)(F)F)n2)n1)C(=O)O [Compound 47] | < 6.00 |  |  | IDH1 R132C IC50 [3]: No Fit
C[C@@H](Nc1nc(N[C@H](C)C2CC2)nc(-c2cccc(C(F)(F)F)n2)n1)C(=O)N(C)C [Compound 48] | < 6.00 |  |  | IDH1 R132C IC50 [3]: No Fit
CC(C)(CO)Nc1nc(Nc2ccnc(C(C)(F)F)c2)nc(-c2cccc(C(F)(F)F)n2)n1 [Compound 49] | < 6.00 | < 6.00 |  | 
C[C@@H](Nc1nc(NC2CCC(F)(F)CC2)nc(-c2cccc(C(F)(F)F)n2)n1)C1CC1 [Compound 50] | > 7.30 | 7.00 to 7.30 |  | pIC50 [1]: > 7.30
C[C@@H](Nc1nc(N[C@H](C)C2CC2)nc(-c2cccc(N3CCC3)n2)n1)C1CC1 [Compound 51] | < 6.00 | < 6.00 |  | 
CC(C)CNc1nc(NC(C)(C)C#N)nc(-c2cc(O)ccc2F)n1 [Compound 86] | < 6.00 | < 6.00 |  | pIC50 [1]: 7.00 to 7.30
C[C@@H](Nc1cc(NC(C)(C)C)nc(-c2cccc(C(F)(F)F)n2)n1)C1CC1 [Compound 417] | 6.00 to 7.00 | < 6.00 |  | pIC50 [7]: 6.00 to 7.00

From patent US10028961B2, “Therapeutically active compounds and their methods of use” (AGIOS PHARMACEUTICALS, INC., priority 2013, dated 2018)
